Results published in patent US20090111697A1, “PROPIONIC ACID AS AN HERBICIDE” (Marrone Organic Innovations, priority 2007, published 2009).

Legend:
[1] = tested on: Lactuca sativa (lettuce) seed; assay: Germination of lettuce seeds in 96-well plate, dilution series; type: in vivo; details: 11 days; for germination: 75 ul per well
Method: The phytotoxic effects of propionic and formic acids were tested on germinating dicot seeds. A single seed of Lactuca sativa (lettuce) was placed in each well of a 96-well plate followed by a 75-ul aliquot of each solution in a stepwise (1:2) dilution series with DI water from 5% to 0%. DI water was used as a control. The plate was sealed with a plastic cover, and placed under greenhouse lights (12 hr light/dark cycle) for 11 days after which the germination at each concentration was recorded. See the results below.

[2] = tested on: Poa annua (annual bluegrass) seeds; assay: Pre-emergence pot test, propionic acid in corn gluten meal granules, annual bluegrass; type: in vivo; details: one week
Method: (§1) To further test the inhibitory effect of propionic acid on germinating seeds, pots with 6-cm diameter were filled with 60 mL of silty clay loam soil passed through a 2-mm sieve, and five (5) seeds of either Lactuca sativa (lettuce, representing a broadleaf plant) or Poa annua (annual bluegrass, representing a grass weed) were planted on the top. A solid form of the composition containing corn gluten meal granules (1-2 mm diameter) soaked in 0%, 10%, 15% or 20% propionic acid solution and dried were placed on the top of the soil at rates 0.1, 0.25, and 0.5 g/pot. The pots were kept at optimum water content under growth lights with a 12-h light/dark period at room temperature, and the number of germinated seeds was counted after one week. The results were reported as a percent of weed seeds germinated relative to the control treatment with no corn gluten meal added.

[3] = tested on: Seedlings of Lactuca sativa (lettuce); assay: High-throughput 96-well post-emergence assay on lettuce seedlings; type: in vivo
Method: A high-throughput 96-well assay was used to test the efficacy of propionic acid as a post-emergence, non-selective herbicide. Seedlings of Lactuca sativa (lettuce) were grown in water agar in 96-well plates under continuous light. Propionic acid was added on the seedlings at a 2×-dilution series from 20% to 0%, and the minimum concentration needed for killing the seedling was recorded the next day. According to the results, propionic acid at a concentration of 0.156% was able to kill the lettuce seedling, whereas propionic acid at a concentration of 0.08% was not harmful for the plant.

[4] = tested on: Poa annua; assay: Post-emergence minimum concentration study in peat pots, 2-10%; type: in vivo; details: Poa annua in small peat pots, sprayed
Source text: To further test the minimum concentration of propionic acid required to control Poa annua (as an example of a grass weed) another study was set up in small peat pots using concentrations 0% (control), 2%, 4%, 6%, 8% and 10% of propionic acid. According to the results, a concentration of 8-10% is needed for good control.

[5] = tested on: Poa annua (annual bluegrass); assay: Post-emergence spray test on annual bluegrass, 0.5-20%; type: in vivo; details: 2 mL spray, four days after treatment
Method: Pots with 6-cm diameter were filled with potting mix, and about thirty (30) seeds of Poa annua (annual bluegrass, representing a grass weed) were planted on the top. The seeds were germinated and the plants grown at optimum water content under growth lights with a 12-h light/dark period at room temperature until they were about 3 inches tall. To test the post-emergence effect of propionic acid, the plants were sprayed with 2 mL of water solutions containing increasing concentrations of propionic acid. The following concentrations (v/v %) were used: 0% (control), 0.5% 2.5%, 5%, 10%, and 20%. the plants were observed four days after the treatment.

[6] = tested on: Lactuca sativa (lettuce) seeds; assay: Pre-emergence pot test, propionic acid in corn gluten meal granules, lettuce; type: in vivo; details: one week
Method: as §1

[7] = Solubility of hinokitiol in solvents; type: physicochemical; details: ambient conditions
Source text: The solubility of hinokitiol in proprionic acid was 60% w/w or 3 parts hinokitiol to 2 parts propionic acid by weight, under ambient conditions. Under the correct conditions the solubility of hinokitiol in propionic acid would exceed 3 parts hinokitiol to 2 parts propionic acid, by weight. Under ambient conditions, the maximum solubility of hinokitiol in ethanol is 50% w/w or 1 part hinokitiol to 1 part ethanol by weight.

[8] = granules soaked in 10% propionic acid, 0.1 g/pot
[9] = granules soaked in 10% propionic acid, 0.25 g/pot
[10] = granules soaked in 10% propionic acid, 0.5 g/pot
[11] = granules soaked in 15% propionic acid, 0.1 g/pot
[12] = granules soaked in 15% propionic acid, 0.25 g/pot
[13] = granules soaked in 15% propionic acid, 0.5 g/pot
[14] = granules soaked in 20% propionic acid, 0.1 g/pot
[15] = granules soaked in 20% propionic acid, 0.25 g/pot
[16] = granules soaked in 20% propionic acid, 0.5 g/pot

In the case of `O=CO` [Formic Acid, reference compound], the germination ([1]; 0.005% solution) is reported as “+”, the germination ([1]; 0.01% solution) is reported as “+ and −” and the germination ([1]; 0.02% solution) is reported as “+ and −”. The germination ([1]; 0.05% solution) was “− and +”, the germination ([1]; 0.09% solution) was “−” and the germination ([1]; 0.19% solution) was “−”. The germination ([1]; 0.36% solution) was “−”, the germination ([1]; 0.75% solution) was “−” and the germination ([1]; 1.25% solution) was “−”. For the same molecule, the germination ([1]; 2.50% solution) was “−” and the germination ([1]; 5.00% solution) was “−”.
For `CCC(=O)O` [Propionic acid], the “germination rate (%) relative to untreated control” value [2, 8] was 37%, the “germination rate (%) relative to untreated control” value [2, 9] was 44% and the “germination rate (%) relative to untreated control” value [2, 10] was 22%. For the same molecule, the “germination rate (%) relative to untreated control” value [2, 11] was 44%, the “germination rate (%) relative to untreated control” value [2, 12] was 52% and the “germination rate (%) relative to untreated control” value [2, 13] was 30%. For the same molecule, the “germination rate (%) relative to untreated control” value [2, 14] was 44%, the “germination rate (%) relative to untreated control” value [2, 15] was 37% and the “germination rate (%) relative to untreated control” value [2, 16] was 96%. For the same molecule, the germination ([1]; 0.005% solution) was “+”, the germination ([1]; 0.01% solution) was “+” and the germination ([1]; 0.02% solution) was “+ and −”. The germination ([1]; 0.05% solution) was “− and +”, the germination ([1]; 0.09% solution) was “−” and the germination ([1]; 0.19% solution) was “−”. For the same molecule, the germination ([1]; 0.36% solution) was “−”, the germination ([1]; 0.75% solution) was “−” and the germination ([1]; 1.25% solution) was “−”. The germination ([1]; 2.50% solution) was “−”, the germination ([1]; 5.00% solution) was “−” and the “threshold value for complete inhibition of seed germination” value ([1]; lettuce seed) was 0.09%. For the same molecule, the “effect on the seedling” value ([3]; concentration of 0.08%, next day) was “not harmful”, the “minimum concentration needed for killing the seedling” value ([3]; lettuce seedlings, recorded the next day) was 0.156% and the “concentration needed for good control” value [4] was 8-10%. The “herbicidal effect, visual observations” value ([5]; 0.5% (v/v) in water) was “no herbicidal effect”, the “herbicidal effect, visual observations” value ([5]; 10% (v/v) in water) was “symptoms of wilting, scorching and eventually, death” and the “herbicidal effect, visual observations” value ([5]; 20% (v/v) in water) was “symptoms of wilting, scorching and eventually, death”. For the same molecule, the “germination rate (%) relative to untreated control” value [6, 8] was 50%, the “germination rate (%) relative to untreated control” value [6, 9] was 75% and the “germination rate (%) relative to untreated control” value [6, 10] was 42%. The “germination rate (%) relative to untreated control” value [6, 11] was 83%, the “germination rate (%) relative to untreated control” value [6, 12] was 25% and the “germination rate (%) relative to untreated control” value [6, 13] was 42%. The “germination rate (%) relative to untreated control” value [6, 14] was 42%, the “germination rate (%) relative to untreated control” value [6, 15] was 67% and the “germination rate (%) relative to untreated control” value [6, 16] was 33%.
In the case of `CC(C)c1cccc(=O)c(O)c1` [hinokitiol], the “maximum solubility in ethanol” value [7] is reported as 50 % w/w and the “solubility in propionic acid” value [7] is reported as 60 % w/w.
